According to PMC7867026, “Selina-1,3,7(11)-trien-8-one and Oxidoselina-1,3,7(11)-trien-8-one from Eugenia uniflora Leaf Essential Oil and Their Cytotoxic Effects on Human Cell Lines” (Molecules, 2021):
pIC50: −log10 of the molar value.

Legend:
[1] = MTT cytotoxicity assay, A549; format: cell-based, human; conditions: human, A549 lung adenocarcinoma epithelial cells, A549, 48 h
Procedure: (§1) The in vitro cytotoxic effect of 1 and 2 compounds were analyzed in relation to A549 (lung adenocarcinoma epithelial cells—BCRJ code: 0033), HepG2 (human hepatoma carcinoma cells—BCRJ code: 0291), and IMR90 (human lung fibroblast—BCRJ code: 0118) cell lines using MTT (3-(4,5-dimethylthiazol-2-yl)-2,5-diphenyl tetrazolium bromide) (Sigma-Aldrich, COD—M5655) assay. All cell lines were maintained in Dulbecco’s Modified Eagle’s Medium/Nutrient Mixture F-12 Ham (Sigma-Aldrich, COD—D8900), with added 10% fetal bovine serum (FBS, Gibco, COD—16000044) and 100 IU penicillin/100 µg streptomycin (Sigma-Aldrich, COD—P4333). The cell lines were grown in a humidified incubator at 37 °C containing 5% CO2. Briefly, the cells were seeded into 96-well plates at a density of 1 × 10^4 cells/well (HepG2 and A549), 5 × 10^3 cells/well (IMR90), 100 μL/well, and after 24 h, the cells were treated with 100 μL of serial concentrations (10–500 μM) of compounds 1 and 2 for 48 h. The stock solution of extracts contained 5% of dimethyl sulfoxide (DMSO) at a final concentration of 0.2% in cell medium for all in vitro assays. The IC50, GI50, and LC50 parameters were performed in accordance with the method described by do Carmo (2018), in which IC50 is the concentration of the agent that inhibits growth by 50%, calculated as (T/C) × 100 = 50, where T = number of cells at time t of treatment; C = control cells at time t of treatment; GI50 is the concentration of the agent that inhibits growth by 50% relative to untreated cells, calculated as ((T − T0)/(C − T0)) × 100 = 50, where T and C are the number of treated and control cells, respectively, at time t of treatment, and T > T0 where T0 is the number of cells at time zero; LC50 is the concentration of the agent that results in a net loss of 50% cells relative to the number at the start of treatment, calculated as ((T − T0)/T0) × 100 = −50, where T < T0. The experiments were conducted in quadruplicate on three different days to assure the reproducibility of the generated data.

[2] = tested on: A549 (lung adenocarcinoma epithelial cells); experiment: MTT cytotoxicity assay, A549; format: cell-based, human; conditions: Homo sapiens, A549, 48 h; for pIC50: 10–500 μM, read-out: IC50 (cell viability); for GI50: read-out: GI50 (antiproliferative effect)
Procedure: as §1

[3] = tested on: IMR90 normal cells; experiment: Intracellular ROS measurement (DCFH-DA fluorescence), IMR90; format: cell-based, human; conditions: IMR90, 10, 50 and 100 μM (legend; method says μg/mL), 1 h
Procedure: (§2) In order to assess the in vitro antioxidant/oxidant potential of 1 and 2, intracellular ROS generation was measured using a fluorescence technique as described by Carmo (2019). Briefly, A549 cancer cells (6 × 10^4/well) and IMR90 normal cells (2 × 10^4/well) were exposed to concentrations of 10, 50, and 100 μg/mL of 1 and 2 compounds, culture medium (negative control), and 15 μmol/L H2O2 (positive control), for 1 h in DCFH-DA solution ([…]), at 37 °C and 5% CO2. Subsequently, cells were washed with PBS and a H2O2 solution (15 μmol/L) added for recording of fluorescence. Intracellular fluorescence intensity of cells was measured at an excitation wavelength of 485 nm and at an emission wavelength of 538 nm. The assays were performed in quadruplicate on three different days.

[4] = tested on: A549 cancer cells; experiment: Intracellular ROS measurement (DCFH-DA fluorescence), A549; format: cell-based, human; conditions: A549, 10, 50 and 100 μM (legend; method says μg/mL), 1 h
Procedure: as §2

[5] = DPPH free-radical scavenging assay; format: biochemical; conditions: result in words; figure values in mg AAE/100 g not given
Procedure: (§3) The free-radical scavenging activity of 1 and 2 in relation to the 2,2-diphenyl-1-picrylhydrazyl (DPPH) radical was measured using the colorimetric method described by Brand-Williams (1995), and the results are expressed in mg of ascorbic acid equivalent per 100 g of material (AAE/100 g). To evaluate the capacity of hydrogen atom transfer (HAT) of the isolated compounds, male Wistar rat brain homogenate was used as substrate for the production of thiobarbituric acid reactive substances (TBARS) produced by Fe^2+-induced oxidation undertaken at 37 °C, following the experimental conditions described elsewhere. The inhibition of lipid peroxidation was expressed as % of inhibition. The animal protocol was approved by the Ethics Committee (UEPG, protocol 47/2017).

[6] = MTT cytotoxicity assay, IMR90; format: cell-based, human; conditions: human, IMR90 lung fibroblasts, IMR90, 48 h, read-out: LC50 (cell death)
Procedure: as §1

[7] = tested on: IMR90 (human lung fibroblast); experiment: MTT cytotoxicity assay, IMR90; format: cell-based; conditions: Homo sapiens, IMR-90, IMR90, 48 h; for pIC50: 10–500 μM, read-out: IC50 (cell viability); for GI50: read-out: GI50 (antiproliferative effect)
Procedure: as §1

[8] = tested on: Wistar rat brain homogenate; experiment: Inhibition of lipid peroxidation (TBARS, Fe2+-induced oxidation) in rat brain homogenate; format: biochemical; conditions: at 40 mg/L
Procedure: as §3

[9] = MTT cytotoxicity assay, HepG2; format: cell-based, human; conditions: human, HepG2 hepatoma carcinoma cells, HepG2, 48 h
Procedure: as §1

[10] = tested on: HepG2 (human hepatoma carcinoma cells); experiment: MTT cytotoxicity assay, HepG2; format: cell-based; conditions: Homo sapiens, HepG2, 48 h; for pIC50: 10–500 μM, read-out: IC50 (cell viability); for GI50: read-out: GI50 (antiproliferative effect)
Procedure: as §1

Row | Compound | LC50 (concentration causing 50% cell death) at 48 h [1] [µM] | pIC50 [2] | GI50 [2] [µM] | intracellular ROS generation [3] | intracellular ROS generation [4] | free-radical scavenging activity (DPPH assay) [5] | CC50 at 48 h [6] [µM] | pIC50 [7] | GI50 [7] [µM] | inhibition of lipoperoxidation in rat brain homogenate [8] | LC50 (concentration causing 50% cell death) at 48 h [9] [µM] | pIC50 [10] | GI50 [10] [µM]
1 | CC1=CC=C[C@]2(C)CC(=O)C(=C(C)C)C[C@H]12 (relative stereo) [Compound 1, selina-1,3,7(11)-trien-8-one] | > 500 | < 3.30 | 591 | inducing reactive oxygen species (ROS) generation | inducing reactive oxygen species (ROS) generation | insignificant free-radical scavenging activity | > 500 | < 3.30 | 185 | did not show inhibitory activity | > 500 | < 3.30 | 289
2 | CC1=COC=C[C@]2(C)CC(=O)C(=C(C)C)C[C@H]12 (relative stereo) [Compound 2, oxidoselina-1,3,7(11)-trien-8-one] |  | < 3.30 | 359 | inducing reactive oxygen species (ROS) generation | inducing reactive oxygen species (ROS) generation | insignificant free-radical scavenging activity | > 500 | < 3.30 | 14.9 | did not show inhibitory activity |  | 3.28 | 97.5
